In PubChem BioAssay AID1259407 (Chemical Carcinogenesis Research Information System (CCRIS), 2018):
Activity calls are given as the source filed them. No rule for the calls is given here.

System: CCRIS mutagenicity, Ames/micronucleus/aberration tests
Assay: CCRIS mutagenicity studies
[1] = Test System: AMES SALMONELLA TYPHIMURIUM, Strain/Indicator: TA100, Metabolic Activation: NONE, Method: PREINCUBATION
[2] = Test System: AMES SALMONELLA TYPHIMURIUM, Strain/Indicator: TA100, Metabolic Activation: S-9, Method: PREINCUBATION
[3] = Test System: AMES SALMONELLA TYPHIMURIUM, Strain/Indicator: TA98, Metabolic Activation: NONE, Method: STANDARD PLATE
[4] = Test System: AMES SALMONELLA TYPHIMURIUM, Strain/Indicator: TA100, Metabolic Activation: NONE, Method: STANDARD PLATE
[5] = Test System: AMES SALMONELLA TYPHIMURIUM, Strain/Indicator: TA102, Metabolic Activation: NONE, Method: STANDARD PLATE
[6] = Test System: AMES SALMONELLA TYPHIMURIUM, Strain/Indicator: TA98, Metabolic Activation: RAT, LIVER, S-9, AROCLOR 1254, Method: STANDARD PLATE
[7] = Test System: AMES SALMONELLA TYPHIMURIUM, Strain/Indicator: TA100, Metabolic Activation: RAT, LIVER, S-9, AROCLOR 1254, Method: STANDARD PLATE
[8] = Test System: AMES SALMONELLA TYPHIMURIUM, Strain/Indicator: TA1535, Metabolic Activation: NONE, Method: STANDARD PLATE
[9] = Test System: AMES SALMONELLA TYPHIMURIUM, Strain/Indicator: TA1535, Metabolic Activation: RAT, LIVER, S-9, AROCLOR 1254, Method: STANDARD PLATE
[10] = Test System: AMES SALMONELLA TYPHIMURIUM, Strain/Indicator: TA1538, Metabolic Activation: NONE, Method: STANDARD PLATE
[11] = Test System: AMES SALMONELLA TYPHIMURIUM, Strain/Indicator: TA1538, Metabolic Activation: RAT, LIVER, S-9, AROCLOR 1254, Method: STANDARD PLATE
[12] = Test System: AMES SALMONELLA TYPHIMURIUM, Strain/Indicator: TA98, Metabolic Activation: NONE, Method: PREINCUBATION
[13] = Test System: AMES SALMONELLA TYPHIMURIUM, Strain/Indicator: TA1535, Metabolic Activation: NONE, Method: PREINCUBATION
[14] = Test System: AMES SALMONELLA TYPHIMURIUM, Strain/Indicator: TA1537, Metabolic Activation: NONE, Method: PREINCUBATION

Q: For `CC1=C(O)C(=O)C(O)CO1` (centres undefined), which mutagenic call [1] is on record?
A: active; positive

Q: What about the mutagenic call [2] of the same compound?
A: active; positive

Q: For `c1ccc2c(c1)CC[C@@H]1CCCC[C@@H]21`, which mutagenic call (Test System: AMES SALMONELLA TYPHIMURIUM, Strain/Indicator: TA98, Metabolic Activation: RAT, LIVER, S-9, SODIUM PHENOBARBITAL AND BETA-NAPHTHOFLAVONE, Method: STANDARD PLATE) is on record?
A: inactive; negative

Q: And the mutagenic call (Test System: AMES SALMONELLA TYPHIMURIUM, Strain/Indicator: TA100, Metabolic Activation: RAT, LIVER, S-9, SODIUM PHEOBARBITAL AND BETA-NAPHTHOFLAVONE, Method: STANDARD PLATE)?
A: inactive; negative

Q: Which mutagenic call [3] does the source give for `CCn1cc(C(=O)O)c(=O)c2cc(F)c(N3CCNC(C)C3)c(F)c21` (centres undefined) here?
A: inactive; negative

Q: What about the mutagenic call (Test System: AMES SALMONELLA TYPHIMURIUM, Strain/Indicator: TA98, Metabolic Activation: RAT, LIVER, S-9, PHENOBARBITAL, Method: STANDARD PLATE) of the same compound?
A: inactive; negative

Q: What about the mutagenic call [4] of the same compound?
A: inactive; negative

Q: And the mutagenic call (Test System: AMES SALMONELLA TYPHIMURIUM, Strain/Indicator: TA100, Metabolic Activation: RAT, LIVER, S-9, PHENOBARBITAL, Method: STANDARD PLATE)?
A: inactive; negative

Q: What about the mutagenic call [5] of the same compound?
A: active; positive

Q: What about the mutagenic call (Test System: CHINESE HAMSTER V-79, Strain/Indicator: V-79 (HGPRT)/6-THIOGUANINE, Metabolic Activation: NONE, Method: STANDARD PLATE) of the same compound?
A: inactive; negative

Q: With `C=CCc1ccc(O)c(O)c1` as the compound, how does the mutagenic call (Test System: AMES SALMONELLA TYPHIMURIUM, Strain/Indicator: TA97, Metabolic Activation: NONE, Method: STANDARD PLATE) read?
A: inactive; negative

Q: And the mutagenic call (Test System: AMES SALMONELLA TYPHIMURIUM, Strain/Indicator: TA97, Metabolic Activation: RAT, LIVER, S-9, AROCLOR 1254, Method: STANDARD PLATE)?
A: inactive; negative

Q: What about the mutagenic call [3] of the same compound?
A: inactive; negative

Q: And the mutagenic call [6]?
A: inactive; negative

Q: And the mutagenic call [4]?
A: inactive; negative

Q: What about the mutagenic call [7] of the same compound?
A: inactive; negative

Q: What about the mutagenic call [5] of the same compound?
A: active; positive

Q: And the mutagenic call (Test System: AMES SALMONELLA TYPHIMURIUM, Strain/Indicator: TA102, Metabolic Activation: RAT, LIVER, S-9, AROCLOR 1254, Method: STANDARD PLATE)?
A: inactive; negative

Q: What about the mutagenic call [8] of the same compound?
A: inactive; negative

Q: And the mutagenic call [9]?
A: inactive; negative

Q: What about the mutagenic call [10] of the same compound?
A: inactive; negative

Q: What about the mutagenic call [11] of the same compound?
A: inactive; negative

Q: With `N#Cc1cccc2cccnc12` as the compound, how does the mutagenic call [2] read?
A: active; positive

Q: What does the source list for `O=C1c2ccccc2C(=O)c2c(O)ccc(O)c21`?
A: mutagenic call (End Point: IN VITRO CHROMOSOMAL ABERRATIONS, Test System: CHL CELLS, Metabolic Activation: NONE): active; positive (structural changes); authors report equivocal results for ploidy chang; mutagenic call [12]: inactive; negative; mutagenic call (Test System: AMES SALMONELLA TYPHIMURIUM, Strain/Indicator: TA98, Metabolic Activation: RAT LIVER S-9, PHENOBARBITAL AND BETA-NAPHTHOFLAVONE, Method: PREINCUBATION): inactive; negative; mutagenic call [6]: inactive; negative; mutagenic call (Test System: AMES SALMONELLA TYPHIMURIUM, Strain/Indicator: TA98, Metabolic Activation: RAT, LIVER, S-9, PCB, Method: PREINCUBATION): inactive; negative; mutagenic call [1]: inactive; negative; mutagenic call [4]: inactive; negative; mutagenic call (Test System: AMES SALMONELLA TYPHIMURIUM, Strain/Indicator: TA100, Metabolic Activation: RAT LIVER S-9, PHENOBARBITAL AND BETA-NAPHTHOFLAVONE, Method: PREINCUBATION): inactive; negative; mutagenic call [7]: inactive; negative; mutagenic call (Test System: AMES SALMONELLA TYPHIMURIUM, Strain/Indicator: TA100, Metabolic Activation: RAT, LIVER, S-9, PCB, Method: PREINCUBATION): inactive; negative; mutagenic call (Test System: AMES SALMONELLA TYPHIMURIUM, Strain/Indicator: TA102, Metabolic Activation: NONE, Method: PREINCUBATION): active; positive; mutagenic call (Test System: AMES SALMONELLA TYPHIMURIUM, Strain/Indicator: TA102, Metabolic Activation: RAT, LIVER, S-9, Method: PREINCUBATION): active; positive; mutagenic call [13]: inactive; negative; mutagenic call [8]: inactive; negative; mutagenic call (Test System: AMES SALMONELLA TYPHIMURIUM, Strain/Indicator: TA1535, Metabolic Activation: RAT LIVER S-9, PHENOBARBITAL AND BETA-NAPHTHOFLAVONE, Method: PREINCUBATION): inactive; negative; mutagenic call [9]: inactive; negative; mutagenic call [14]: active; positive; mutagenic call (Test System: AMES SALMONELLA TYPHIMURIUM, Strain/Indicator: TA1537, Metabolic Activation: NONE, Method: STANDARD PLATE): active; positive; mutagenic call (Test System: AMES SALMONELLA TYPHIMURIUM, Strain/Indicator: TA1537, Metabolic Activation: RAT LIVER S-9, PHENOBARBITAL AND BETA-NAPHTHOFLAVONE, Method: PREINCUBATION): active; positive; mutagenic call (Test System: AMES SALMONELLA TYPHIMURIUM, Strain/Indicator: TA1537, Metabolic Activation: RAT, LIVER, S-9, AROCLOR 1254, Method: STANDARD PLATE): active; positive; mutagenic call [10]: inactive; negative; mutagenic call [11]: inactive; negative; mutagenic call (Test System: E.COLI, Strain/Indicator: WP2UVRA, Metabolic Activation: NONE, Method: PREINCUBATION): inactive; negative; mutagenic call (Test System: E.COLI, Strain/Indicator: WP2UVRA, Metabolic Activation: RAT LIVER S-9, PHENOBARBITAL AND BETA-NAPHTHOFLAVONE, Method: PREINCUBATION): inactive; negative

Q: For `CCN(CC)CCO`, which mutagenic call (Test System: AMES SALMONELLA TYPHIMURIUM, Strain/Indicator: TA98, Metabolic Activation: HAMSTER, LIVER, S-9, AROCLOR 1254 (10%), Method: PREINCUBATION) is on record?
A: inactive; negative

Q: And the mutagenic call [12]?
A: inactive; negative

Q: What about the mutagenic call (Test System: AMES SALMONELLA TYPHIMURIUM, Strain/Indicator: TA98, Metabolic Activation: RAT, LIVER, S-9, AROCLOR 1254 (10%), Method: PREINCUBATION) of the same compound?
A: inactive; negative

Q: What about the mutagenic call (Test System: AMES SALMONELLA TYPHIMURIUM, Strain/Indicator: TA100, Metabolic Activation: HAMSTER, LIVER, S-9, AROCLOR 1254 (10%), Method: PREINCUBATION) of the same compound?
A: inactive; negative

Q: And the mutagenic call [1]?
A: inactive; negative

Q: And the mutagenic call (Test System: AMES SALMONELLA TYPHIMURIUM, Strain/Indicator: TA100, Metabolic Activation: RAT, LIVER, S-9, AROCLOR 1254 (10%), Method: PREINCUBATION)?
A: inactive; negative

Q: And the mutagenic call (Test System: AMES SALMONELLA TYPHIMURIUM, Strain/Indicator: TA1535, Metabolic Activation: HAMSTER, LIVER, S-9, AROCLOR 1254 (10%), Method: PREINCUBATION)?
A: inactive; negative

Q: And the mutagenic call [13]?
A: inactive; negative

Q: What about the mutagenic call (Test System: AMES SALMONELLA TYPHIMURIUM, Strain/Indicator: TA1535, Metabolic Activation: RAT, LIVER, S-9, AROCLOR 1254 (10%), Method: PREINCUBATION) of the same compound?
A: inactive; negative

Q: And the mutagenic call (Test System: AMES SALMONELLA TYPHIMURIUM, Strain/Indicator: TA1537, Metabolic Activation: HAMSTER, LIVER, S-9, AROCLOR 1254 (10%), Method: PREINCUBATION)?
A: inactive; negative

Q: And the mutagenic call [14]?
A: inactive; negative

Q: What about the mutagenic call (Test System: AMES SALMONELLA TYPHIMURIUM, Strain/Indicator: TA1537, Metabolic Activation: RAT, LIVER, S-9, AROCLOR 1254 (10%), Method: PREINCUBATION) of the same compound?
A: inactive; negative
